The values that follow come from patent US20190290656A1, “PT(IV) PRODRUGS” (YISSUM RESEARCH DEVELOPMENT COMPANY OF THE HEBREW …, priority 2015, published 2019).

One experiment concerns HCT-15 cells. Put plainly: MTT cytotoxicity assay, HCT-15. Type of experiment: cell-based, human. Particulars: HCT-15, 72 h, MTT (Table 5); read-out: IC50 (μM) ± S.D. In short, it runs like this: (§1)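 MTT viability read-out in HCT-15 and A375 human cancer cells after 72 h compound exposure; triplicate cultures per treatment.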
On the technique in general: Formazan colour is commonly taken as a measure of viable cells.

A further experiment concerns A375 cells. Kind of experiment: MTT cytotoxicity assay, A375. Type of experiment: cell-based, human. Particulars: A375, 72 h, MTT (Table 5); read-out: IC50 (μM) ± S.D. Summed up: as §1
Experiment [1] has as its system 2008 cells. Put plainly: MTT cytotoxicity assay, 2008. Type of experiment: cell-based, human. Particulars: 2008, 72 h, MTT. The method, then:
(§2) MTT assay. […] Triplicate cultures were established for each treatment.
(§3) The two dimers, 3a and 3b, as well as compounds 1a and 2a were screened against six human cancer cell lines representative of lung (H157), colon (HCT-15), cervical (A431), ovarian (2008) and pancreatic (PSN1) cancers, along with melanoma (A375). Cytotoxicity was evaluated by means of the MTT test after 72 h of treatment and the in vitro antitumor potential of newly synthesized derivatives was compared to that of the reference metallo-drugs CDDP and OXP.

Another experiment concerns A431 cells. Kind of experiment: MTT cytotoxicity assay, A431. Type of experiment: cell-based, human. Particulars: A431, 72 h. How it is done:
as §2, §3

The next experiment concerns H157 cells. Kind of experiment: MTT cytotoxicity assay, H157. Type of experiment: cell-based, human. The settings on record: H157, 72 h. The method, then:
as §2, §3

In a further experiment the test system is PSN1 cells. Kind of experiment: MTT cytotoxicity assay, PSN1. Particulars: PSN1, 72 h, MTT. Type of experiment: cell-based, human. How it is done:
as §2, §3

In another experiment the test system is HCT-15 spheroids. Put plainly: 3D spheroid APH assay, HCT-15. Type of experiment: cell-based, human. Particulars: HCT-15 spheroids, 72 h, APH test. The text has this: (§4) Acid phosphatase (APH) assay. A modified APH assay, which is based on quantification of cytosolic acid phosphatase activity, was used for determining cell viability in spheroids. […] Triplicate cultures were established for each treatment. […] Evaluation was based on means from at least four independent experiments.
(§5) In order to improve the predictive capacity of the in vitro assays, we tested the activity in three three-dimensional (3D) cell cultures; human colon cancer cells, HCT-15, and human pancreatic cancer cells, KRAS wild type BxPC3 cells KRAS mutated PSN-1 cells. The cancer spheroids were treated with 3a and 3b for 72 h and the cell viability was assessed by means of the APH assay (Table 6). For comparison purposes, the cytotoxicities of CDDP and OXP were evaluated under the same experimental conditions.

The subject of a further experiment is BxPC3 spheroids. Put plainly: 3D spheroid APH assay, BxPC3. The settings on record: 72 h, APH test. Type of experiment: cell-based, human.
Source text: as §4, §5

A further experiment relates to PSN-1 spheroids. Put plainly: 3D spheroid APH assay, PSN-1. Type of experiment: cell-based, human. The settings on record: PSN-1 spheroids, 72 h, APH test.
Source text: as §4, §5

Experiment [2] deals with human embryonic kidney HEK293 cells. Put plainly: MTT cytotoxicity against non-tumor cells. Type of experiment: cell-based. How it is done: as §2
The cytotoxic activity of derivatives 3a and 3b was also evaluated against non-tumor cells, namely human embryonic kidney HEK293 cells (Table 7). Both compounds 3a and 3b were more cytotoxic than CDDP.

Experiment [3] relates to Histone deacetylase (HDAC). Put plainly: Histone deacetylase assay in 2008 cells. Type of experiment: cell-based, human. Particulars: 24 h, IC50 concentrations. The method, then:
(§6) Histone deacetylase assay. Histone deacetylase activity was determined using Fluor-de-Lys® HDAC fluorometric activity assay kit (Enzo Life Sciences International, Inc., Plymount Meeting, Pa., U.S.A.). 2008 and PSN1 cells (5.10^4 seeded in 96-well microplates) were treated for 24 h with tested complexes, and then processed as reported by the manufacturer's instructions. Fluorescence was measured using a Fluoroskan Ascent FL (Labsystem, Finland) plate reader, with excitation at 360 nm and emission at 460 nm.
(§7) Thus, we measured both the levels of DNA platination and the ability of these pro-drugs to inhibit HDAC activity in cancer cells.

Experiment [4] has as its system Histone deacetylase (HDAC). Kind of experiment: Histone deacetylase assay in PSN-1 cells. Type of experiment: cell-based, human. Particulars: 24 h, IC50 concentrations. How it is done: as §6, §7
Experiment [5] deals with 2008 cells. Put plainly: Glycolysis (Mito-ID O2 sensor), 2008. Type of experiment: cell-based, human. Particulars: IC50 concentrations, 24 h. How it is done:
(§8) Glycolysis. The cellular glycolytic activity was assessed using the Mito-ID® O2 Extracellular Sensor Kit according to the manufacturer's instructions (Enzo Life Sciences, Farmingdale, N.Y.). Briefly, PSN-1 cells (15·10^3 per well) were seeded in 96-well plates. After 24 h, cells were treated with Mito-ID® O2 Sensor Probe Solution containing the tested compounds at the appropriate concentration. Fluorescence was estimated using a plate reader (Fluoroskan Ascent FL, Labsystem, Finland) at 350 nm (excitation) and 610 nm (emission).
(§9) Based on the above findings, we investigated the effects determined by derivatives 3a and 3b on 2008 and PSN-1 cancer cell aerobic glycolysis and mitochondria function.
(§10) However, these effects were magnified in PSN-1 cells, having reduction of cellular glycolytic activity of about 36 and 20% for 3a and 3b, respectively. […] This latter result could be explained tacking into consideration that the reference compound [Pt(DACH)(56Phen)] itself, that is also released upon reduction of 3a and 3b, is effective in hampering cellular glycolysis in both tested cancer cell lines. The difference between 3a and 3b might be attributed to the added effect of DCA.

The next experiment has as its system PSN-1 cells. Put plainly: Glycolysis (Mito-ID O2 sensor), PSN-1. Type of experiment: cell-based, human. Particulars: IC50 concentrations, 24 h. The method, then: as §8, §9, §10

The IC50 is the concentration that inhibits the measured activity by half. For “c,c,t,t,c,c-[(DACH)(56Phen)(OAc)Pt(μ-OOC—(CH2)2—CONH(CH2)3COO)-Pt(OAc)(NH3)2(Cl2)](TFA)2 [Compound 3b]”, the IC50 in the experiment on HCT-15 cells is 1.89 ± 0.69 µM; in the experiment on A375 cells, 1.05 ± 0.18 µM; with 2008 cells [1] it was 6.04 µM; in the experiment with A431 cells, 5.25 ± 0.41 µM; with H157 cells, 8.25 ± 1.21 µM; with PSN1 cells it was 6.12 µM. The IC50 worked out at 75.9 ± 4.52 µM in the experiment on HCT-15 spheroids; 81.3 ± 6.25 µM in the experiment on BxPC3 spheroids; 60.5 ± 5.76 µM in the experiment with PSN-1 spheroids; 7.8 ± 3.36 µM in [2] (HEK293 non-tumor cells, 72 h, MTT). The “SI (selectivity index)” value in experiment [2] (ratio between average IC50 of non-tumor cells and IC50 of malignant cells) is 1.7. The HDAC activity hampered entry in [3] and in experiment [4] was “not effective in modifying HDAC activity” throughout. Moreover, the “reduction of glycolysis processes compared with untreated control cells” value with 2008 cells [5] was about 14%. Also, in the experiment with PSN-1 cells, the “reduction of cellular glycolytic activity” value is recorded as about 20%.
